Data from patent US6063777A, “Iminochlorinaspartic acid derivatives” (Wyeth Lederle Japan, Ltd., priority 1996, dated 2000).

What was measured:
[1] = Laser irradiation to extirpated organ: distribution (cancer/organ ratio) by surface fluorescence, N2-pulsed laser, mice bearing Colon 26; format: in vivo, CDF1 mice; settings: mouse, tumor/plasma, sodium salt, 10 mg/kg intravenous
Protocol: (§1) CDF1 mice (5 per group) were implanted with tumor tissues of colon cancer Colon 26. Two weeks after the implantation, the mice were given an intravenous injection of sodium salt of each of compounds (I) and (II) (10 mg/kg for each mouse) which had been diluted with a distilled water for injection. At 3 hrs, 6 hrs and 12 hrs after the injection, the blood samples were collected and the organs bearing the tumor tissue were extirpated, irradiated with N2 -pulsed laser (N2, wavelength: 337 nm, 2 ns), and the excited fluorescent spectrum was measured. The wavelengths in the range of 600 to 900 nm were examined based on the peak wavelength of NADH at 470 nm (determination of the distribution of the test compound in the organ by the surface fluorescence method using N2 -pulsed laser spectrophotometry). That is, cancer/organ (or plasma) ratio was determined by calculating the peak wavelength in the range of 600 to 900 nm when the peak wavelength at 470 nm was considered as the basic value, 1.

[2] = test system: colon cancer Colon 26; test: as above; format: in vivo, CDF1 mice; settings: sodium salt, 10 mg/kg intravenous
Protocol: as §1

[3] = test system: HeLa cells; test: HeLa cell survival after diode laser (670 nm) irradiation, MTS-PMS reagent; format: cell-based; settings: Homo sapiens, HeLa, light or radiation study, sodium salt, 6 hrs, 670 nm, 25 J/cm^2, read-out: Cell Survival Rate
Protocol: HeLa cells were seeded in wells of a 96-well plate each containing 100 μl of a culture medium at 5×10^3 /well, and incubated at 37° C. overnight. In each well, the culture medium was removed, and 100 μl of a solution containing sodium salt of either of compound (I) or compound (II) in concentrations of 0, 6.25, 12.5, 25, 50 and 100 μM/ml was added (3 wells for each group of the concentrations) and incubated at 37° C. at for 6 hrs. Each well was washed with PBS(-) once, and then 100 μl of a fresh medium was added. The wells were irradiated using a diode laser (670 nm) under the conditions of 0.44W of laser intensity, 0.785 cm^2 of irradiation area (diameter: 1 cm) and 25 J/cm^2 of laser energy. After the irradiation, each well was incubated at 37° C. overnight and washed with PBS(-) once, then 100 μl of a fresh medium was added. To each well was added 20 μl of MTS-PMS reagent, and the well was further incubated at 37° C. for 2-4 hrs. The absorbance of each well at 492 nm was measured using a microplate reader. The cell survival rate at each of the above mentioned concentrations of the test compound was calculated considering the value for the well of 0 μM/ml of the test compound as 100%.

Kp at 3 h ([1]; 3 hr): 0.3
Kp at 6 h ([1]; 6 hr): 1.12
Kp at 12 h ([1]; 12 hr): 0.66
Cancer/Brain ratio ([2]; 3 hr): 10.10
Cancer/Kidney ratio ([2]; 3 hr): 0.67
Cancer/Liver ratio ([2]; 3 hr): 0.62
Cancer/Lung ratio ([2]; 3 hr): 2.35
Cancer/Muscle ratio ([2]; 3 hr): 1.23
Cancer/Brain ratio ([2]; 6 hr): 16.0
Cancer/Kidney ratio ([2]; 6 hr): 0.59
Cancer/Liver ratio ([2]; 6 hr): 1.01
Cancer/Lung ratio ([2]; 6 hr): 4.59
Cancer/Muscle ratio ([2]; 6 hr): 1.26
Cancer/Brain ratio ([2]; 12 hr): 15.0
Cancer/Kidney ratio ([2]; 12 hr): 0.95
Cancer/Liver ratio ([2]; 12 hr): 1.11
Cancer/Lung ratio ([2]; 12 hr): 2.68
Cancer/Muscle ratio ([2]; 12 hr): 2.95
Compound: C=Cc1c(C)c2cc3nc(cc4[nH]c(cc5nc(cc1[nH]2)C(C)(O)C5=CC=NO)c(C)c4CCC(=O)NC(CC(=O)O)C(=O)O)C(CCC(=O)NC(CC(=O)O)C(=O)O)=C3C (centres unmarked) [Compound (II), reference compound]
viability at 6.25 µM ([3]; 6.25 μM): 81%
viability at 12.5 µM ([3]; 12.5 μM): 54%
viability at 25 µM ([3]; 25 μM): 48%
viability at 50 µM ([3]; 50 μM): 35%
viability at 100 µM ([3]; 100 μM): 19%
